The values below come from PMC5010932 (Molecular cancer therapeutics, 2016).

The assay concerns the target NAMPT (Homo sapiens, UniProt P43490). The experiment in a line: cell-free coupled-enzyme colorimetric assay with recombinant NAMPT. In kind it is biochemical.

NAMPT, sequence (P43490 whole entry): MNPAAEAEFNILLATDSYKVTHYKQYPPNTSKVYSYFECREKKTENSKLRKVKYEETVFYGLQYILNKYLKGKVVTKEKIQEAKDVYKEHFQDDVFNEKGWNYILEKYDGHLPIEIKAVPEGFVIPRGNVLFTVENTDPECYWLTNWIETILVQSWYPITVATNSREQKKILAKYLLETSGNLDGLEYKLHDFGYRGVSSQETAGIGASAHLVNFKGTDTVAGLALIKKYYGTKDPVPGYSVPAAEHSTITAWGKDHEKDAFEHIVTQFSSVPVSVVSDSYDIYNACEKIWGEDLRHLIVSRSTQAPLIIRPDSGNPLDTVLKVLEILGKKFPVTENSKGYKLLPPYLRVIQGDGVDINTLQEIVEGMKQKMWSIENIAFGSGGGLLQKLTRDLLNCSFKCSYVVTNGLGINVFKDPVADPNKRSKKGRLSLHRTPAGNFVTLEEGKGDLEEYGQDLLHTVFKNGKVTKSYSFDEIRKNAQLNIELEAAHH

On to `Nc1ccc(/C=C/C(=O)NCc2cc3cc(-c4ccc(C(=O)N5CCC(F)(F)CC5)cc4)cc(-c4ccc(F)cc4)c3o2)cn1` [KPT-9274], for which the IC50 is about 0.12 µM.
